Results as given in patent US20230257373A1, “QUORUM SENSING INHIBITORS AND METHODS OF USE” (priority 2020, published 2023).
Like-named read-outs stand apart in the source and are kept apart here.

What was measured:
[1] = biological target: T1, V. campbellii LuxR (Vibrio harveyi, UniProt P21308); test: E. coli dual-color bioassay (pKM699 LuxR, pJV064 reporter); type: cell-based
T1 construct: expressed in transfected cells; host or cells: E. coli DH10B with pKM699 and reporter pJV064
Excerpt: Previously, we developed a bioassay that consists of a dual-color fluorescent reporter plasmid that reports both LuxR activities: the luxCDABE promoter is activated by LuxR and drives expression of gfp, and the VIBHAR_05222 promoter is repressed by LuxR and drives expression of mCherry (van Kessel et al., 2013b) (FIG. 2A). We used this reporter plasmid in an E. coli strain that also contains a plasmid expressing LuxR from its native promoter.
A bioassay was developed to monitor LuxR function that consists of a dual-color reporter plasmid (pJV064) that reports both activities: the luxCDABE promoter is activated by LuxR and drives expression of gfp, and the 05222 promoter is repressed by LuxR and drives expression of mCherry (van Kessel, Ulrich et al. 2013). This reporter plasmid was used in an E. coli strain that also contains a plasmid (pKM699) expressing LuxR from its native promoter. E. coli cultures containing these two plasmids were grown at 30° C. in LB medium with chloramphenicol (10 μg/ml) and tetracycline (10 μg/ml) to select for the two plasmids. Compounds were added to the cultures at a range of concentrations, and the cultures were incubated for 16 hours shaking at 30° C.
The dual-promoter fluorescence reporter assays were performed using E. coli strain DH10B containing two plasmids: 1) plasmid pJV064 containing the PluxC fused to GFP and P05222fused to mCherry to assess LuxR transcriptional regulation, and 2) plasmid pKM699 expressing V. campbellii luxR under control of its native promoter or empty vector pLAFR2.

[2] = biological target: T2, SmcR (Vibrio vulnificus, UniProt Q9L8G8); test: ITC analysis of SmcR interaction with inhibitors; type: binding, V. vulnificus
T2 sequence (Q9L8G8 entry or part of it): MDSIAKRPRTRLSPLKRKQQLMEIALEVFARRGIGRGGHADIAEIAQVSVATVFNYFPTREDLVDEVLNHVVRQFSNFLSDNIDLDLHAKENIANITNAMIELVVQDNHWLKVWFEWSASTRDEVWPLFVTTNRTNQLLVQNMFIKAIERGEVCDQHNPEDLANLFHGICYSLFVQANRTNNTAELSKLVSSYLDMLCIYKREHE
Excerpt: To test the validity of the modelling predictions for PTSP, we performed isothermal titration calorimetry (ITC) to determine the binding affinity of SmcR and LuxR for PTSP. […] We noted that PTSP binding to both LuxR and SmcR had lower entropy and enthalpy compared to SmcR binding to Qstatin. […] Thus, we conclude that the efficacy of PTSP inhibition in vivo in these two Vibrio species correlates to the binding affinity determined in vitro for these two proteins.
(§1) SmcR and LuxR were purified as described previously. EMSAs were conducted as described previously using oligonucleotides corresponding to the luxC and vvpE promoter sequences. ITC analysis was conducted using purified LuxR or His-tagged SmcR, each in gel-filtration buffer (25 mM Tris pH 7.5, 300 mM NaCl, 0.5 mM EDTA, 1 mM DTT, 2% DMSO). All molecules analyzed were diluted in the same buffer. The samples were degassed for 10 min by vacuum aspiration. Titrations were performed on a Nano-ITC (TA Instruments). […] Thermograms were analyzed using NanoAnalyze software with the independent binding model.

[3] = test system: VcpR; test: E. coli bioassay expressing VcpR (IPTG-inducible plasmid); type: cell-based, V. coralliilyticus; details: 25 μM PTSP
Excerpt: We hypothesized that there were several possible reasons for the observed difference in PTSP inhibition in the various Vibrio species, including but not limited to: 1) differences in LuxR-inhibitor interaction(s), 2) differences in diffusion of the inhibitor across the membranes, or 3) stability of the inhibitor in the cell and/or cell culture. To examine PTSP activity in a common strain background, we cloned the luxR gene from each Vibrio species into a plasmid under control of an IPTG-inducible promoter and assayed the effect of PTSP against these proteins in the E. coli bioassay. […] We conclude that the differences in PTSP activity in Vibrio species is due to differences in interaction between PTSP and the LuxR-type protein in each Vibrio.
In E. coli assays expressing the five different LuxR-type proteins (luxR, smcR, opaR, vcpR, hapR), slight changes to the protocol were implemented. The luxR genes were cloned under control of the IPTG-inducible Ptac promoter in plasmid pMMB67EH-kanR. […] Strains expressing hapR or smcR required 50 μM IPTG to observe activation of the GFP reporter; IPTG was not added to strains expressing luxR, vcpR, or opaR.

[4] = biological target: T2, SmcR; test: EMSA DNA binding activity of SmcR; type: biochemical, V. vulnificus; details: saturating concentrations
Description: (§2) We noted that Qstatin and PTSP are both predicted to bind in the putative ligand binding pocket of SmcR. It is currently unknown how Qstatin allosterically affects DNA binding through its interactions in the ligand binding domain. […] We therefore also assessed the effect of sulfonamide PTSP on the DNA binding activity of LuxR and SmcR in vitro. […] (Kim et al., 2018).
as §1

[5] = test system: V. vulnificus; test: Growth of V. vulnificus with inhibitor; type: cell-based; details: high concentrations
Excerpt: Many sulfonamide-containing compounds are known to target the folate synthesis pathway in bacteria and inhibit growth (bacteriostatic), and thus these “sulfa drugs” have been used as broad-spectrum antibiotics for decades (Hammoudeh et al., 2013, Roland et al., 1979). […] We also tested the stability of the inhibitors in bacterial cultures and the timing of the inhibitory effect.

[6] = biological target: LuxR (Vibrio harveyi, UniProt P21308); test: EMSA DNA binding activity of LuxR; type: biochemical, V. campbellii; set-up: made in house; host or cells: E. coli BL21(DE3); details: saturating concentrations
Sequence of LuxR (P21308 whole entry): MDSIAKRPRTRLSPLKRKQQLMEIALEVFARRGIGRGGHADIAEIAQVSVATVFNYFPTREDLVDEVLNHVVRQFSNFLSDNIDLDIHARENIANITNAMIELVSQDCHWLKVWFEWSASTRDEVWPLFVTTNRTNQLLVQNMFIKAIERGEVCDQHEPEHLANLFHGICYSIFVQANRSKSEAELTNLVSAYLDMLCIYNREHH
Description: as §2, §1

[7] = test system: V. coralliilyticus protease activity; test: Protease assay (azocasein) in V. coralliilyticus; details: 2.5 μM PTSP vs DMSO

T1 sequence (P21308 whole entry): as above

O=S(=O)(c1cccs1)n1ccc(-c2ccccc2)n1 [Compound 10B]
Inhibition of LuxR in the E. coli bioassay (in words) ([1]; GFP and mCherry reporters): most potent | Time after addition at which GFP production was blocked ([1]; addition to the culture): 120 min | Duration for which block of GFP production was maintained ([1]; longest timepoint tested): ≥ 16 h | IC50 ([1]; read-out: IC50 in the bioassay (approximate)): 1000 to 2000 nM | Ka [2]: 4.85e+06 M⁻¹ | ΔG [2]: -9.092 kcal/mol | ΔH [2]: -33.963 kcal/mol | ΔS [2]: −348.97 J/mol · K | −TΔS [2]: 24.869 kcal/mol | Kd ([2]; 25° C., read-out: Kd): 227 nM | ΔG ([2]; listed as PTSP): -9.08 kcal/mol | Kd ([2]; read-out: Dissociation constant (Kd)): 230 nM | Inhibition of VcpR in E. coli bioassay [3]: inhibited | DNA binding to SmcR [4]: did not alter DNA binding | Growth rate or growth yield [5]: did not alter growth rate or growth yield | DNA binding to LuxR [6]: did not alter DNA binding | Protease activity of wild-type strain [7]: significantly reduced protease activity
